Values quoted from earlier work as cited in patent US11331358B2, “Pharmaceutical composition and method of manufacturing” (CURE PHARMACEUTICAL HOLDING CORP., priority 2014, dated 2022).
Values after ≈ are worked out from the molar mass of the structure shown. Where two headings read alike, the source gives them in different places.

Details: for Solubility in alcohols, lipids and organic solvents: solvents as named in the value; for Solubility in alcohols, lipids and organic solvents / Solubility in alkaline solutions: qualitative; for Solubility in alkaline solutions: alkaline solutions / alkalai
[1] = qualitative (insol. / sp. sol. / sol)

Compound	Solubility in alcohols, lipids and organic solvents	Solubility in water [1]	Solubility in alkaline solutions	Solubility in water (23° C.)
C=C(C)C1CC=C(C)C(=O)C1 (stereo not shown) [carvone]	sol. alcohols, organic solvents (ethers, halocarbons)	insol.		
CCCCCc1cc(O)c2c(c1)OC(C)(CCC=C(C)C)C=C2 (stereo not shown) [cannabichromene (CBC), cannabichromene]	sol. pentane	insol.		
C=C(C)C1CC=C(C)CC1c1c(O)cc(CCCCC)c(C(=O)O)c1O (stereo not shown) [Δ(8)-tetrahydrocannabidiolic acid]	sol. alcohols	sol	sol	
CCCc1cc(O)c2c(c1)OC(C)(C)[C@@H]1CCC(C)=CC21 (stereo partly shown) [Δ(9)- tetrahydrocannabivarin (Δ(9)-THV), Δ(9)-tetrahydrocannabivarin]	sol. alcohols	sol	sol	
CCCCCc1cc(O)c(C/C=C(\C)CCC=C(C)C)c(O)c1 [cannabigerol (CBG), cannabigerol]	sol. pentane	insol.		
C[C@@H]1CCC2(OC2(C)C)C(=O)C1 (stereo partly shown) [pulegone-1,2epoxide]	sol. alcohols, organic solvents (ethers, halocarbons)	insol.		
CC12CCC(CC1)C(C)(C)O2 [1,8-cineole]	sol. alcohols, organic solvents (ethers, halocarbons)	insol.		
CCCCCc1cc(O)c2c(c1)OC(C)(C)[C@@H]1CC=C(C)CC21 (stereo partly shown) [Δ(8)-tetrahydrocannabinol (Δ(8)-THC), Δ(8)-tetrahydrocannabinol]	sol. MeOH, EtOH sol. lipids sol. non-polar organic solvents	insol.		
fenchone	sol. alcohols, organic solvents (ethers, halocarbons)	insol.		
C=C(C)C1CC=C(C)CC1c1c(O)cc(CCCCC)cc1O (stereo not shown) [Δ(8)-tetrahydrocannabidiol (Δ(8)-CBD), Δ(8)-tetrahydrocannabidiol]	sol. pentane	insol.		
CCCCCc1cc(O)c2c(c1)OC1(C)CCC3C1C2C3(C)C (stereo not shown) [cannabicyclol (CBL), cannabicyclol]	sol. pentane	insol.		
CC1=CCC(O)(C(C)C)CC1 (stereo not shown) [terpinen-4-ol]	sol. alcohols, organic solvents (ethers, halocarbons)	insol.		
CCCCCc1cc2c(c(O)c1C(=O)O)-c1cc(C)ccc1C(C)(C)O2 [cannabinolic acid (CBNA), cannabinolic acid]	sol. alcohols	sol	sol	
Cc1ccc(C(C)C)cc1 [p-cymene]	sol. alcohols, organic solvents (ethers, halocarbons), hydrocarbons	insol.		
COc1cc(-c2cc(=O)c3c(O)c(C/C=C(\C)CCC=C(C)C)c(O)cc3o2)ccc1O [cannaflavin A]	sol. alcohols, ethers, halocarbons	insol.	sol.	
C=C1CCC2OC2(C)CC[C@H]2[C@H]1CC2(C)C (stereo partly drawn) [β-caryophyllene epoxide]	sol. alcohols, organic solvents (ethers, halocarbons)	insol.		
CCCCCc1cc(O)c(C/C=C(\C)CCC=C(C)C)c(O)c1C(=O)O [cannabigerolic acid (CBGA), cannabigerolic acid]	sol. alcohols	sol	sol	
CCCCCc1cc2c(c(O)c1C(=O)O)C1C=C(C)CC[C@H]1C(C)(C)O2 (stereo partly shown) [Δ(9)-tetrahydrocannabinolic acid]	sol. alcohols	sol	sol	
C=CC(=C)CCC=C(C)C [β-myrcene]		insol.		
CCCCCc1cc(O)c2c(c1)OC(C)(C)[C@@H]1CCC(C)=CC21 (stereo partly shown) [Δ(9)-tetrahydrocannabinol (Δ(9)-THC), Δ(9)-tetrahydrocannabinol, reference compound]	sol. MeOH, EtOH sol. lipids sol. non-polar organic solvents			2.8 µg/mL (≈ 8.9 µM)
CCCCCc1cc2c(c(O)c1C(=O)O)C1CC(C)=CC[C@H]1C(C)(C)O2 (stereo partly shown) [Δ(8)-tetrahydrocannabinolic acid]	sol. alcohols	sol	sol	
CCCCCc1cc(O)c2c(c1)OC(C)(C)c1ccc(C)cc1-2 [cannabinol (CBN), cannabinol]	sol. MeOH, EtOH, lipids, non-polar organic solvents	insol.		
CCCCCc1cc2c(c(O)c1C(=O)O)C1C3C(CCC3(C)O2)C1(C)C (stereo not shown) [cannabicyclolic acid (CBLA), cannabicyclolic acid]	sol. alcohols	sol	sol	
C=C(C)C1CC=C(C)CC1 (stereo not shown) [limonene]	sol. alcohols, organic solvents (ethers, halocarbons), hydrocarbons	insol.		
Cc1ccc(C(C)C)cc1O [carvacrol]	sol. alcohols, organic solvents (ethers, halocarbons)	sp. sol.		
CC(C)=C1CC[C@@H](C)CC1=O [pulegone]	sol. alcohols, organic solvents (ethers, halocarbons)	insol.		
COc1cc(-c2cc(=O)c3c(O)c(CC=C(C)C)c(O)cc3o2)ccc1O [cannaflavin B]	sol. alcohols, ethers, halocarbons	insol.	sol.	
C=C(C)C1CCC2(C)OC2C1 (stereo not shown) [limonene oxide]	sol. alcohols, organic solvents (ethers, halocarbons)	insol.		
CCCCCc1cc2c(c(O)c1C(=O)O)C=CC(C)(CCC=C(C)C)O2 (stereo not shown) [cannabichromenic acid (CBCA), cannabichromenic acid]	sol. alcohols	sol	sol	
